In patent US10138255B2, “Piperazine derivatives as HIV protease inhibitors” (Merck Sharp & Dohme Corp., priority 2014, dated 2018):

What follows are compounds tested on HIV-1 (H9IIIB strain) (assay: Cell-Based HIV Infection Assay Using a Reporter (MT4-GFP cells)). Conditions: Human immunodeficiency virus 1, inflection point (IP) of viral growth inhibition; MT4-GFP cells infected with HIV-1 H9IIIB; 50% normal human serum; mean of at least two independent experiments; read-out: Cell Based IP (50% NHS).
In short: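 MT4-GFP cells (HIV LTR-driven GFP) bulk-infected with HIV-1 H9IIIB at low MOI for 24 h, washed, then exposed to compounds in RPMI plus 50% normal human serum, 0.4% DMSO. Infected cells counted at 24 and 48 h; R0 = 48 h/24 h ratio, inhibition normalised to DMSO and triple-drug control; IP from 4-parameter fit.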

| SMILES | EC50 [nM] |
| --- | --- |
| COC(=O)N[C@H](C(=O)N[C@H]1CCC[C@@H]1CC[C@H]1CN[C@@H]2CCCS(=O)(=O)N1C2)[C@H](c1cncc(C(F)(F)F)c1)c1ccc(Cl)c(F)c1 [Example 79, methyl {(1S,2S)-2-(4-chloro-3-fluorophenyl)-1-{[(1S,2R)-2-{2-[(6R,9S)-2,2-dioxido-2-thia-1,7-diazabicyclo[4.3.1]dec-9-yl]ethyl}cyclopentyl]carbamoyl}-2-[5-(trifluoromethyl)pyridin-3-yl]ethyl}carbamate] | 31 |
| COc1ccc([C@H](c2ccc(Cl)cc2)[C@H](N)C(=O)N[C@H]2CCC[C@@H]2CC[C@H]2CN[C@@H]3CCCS(=O)(=O)N2C3)cn1 [Example 80, (βS)-4-chloro-N-[(1S,2R)-2-{2-[(6R,9S)-2,2-dioxido-2-thia-1,7-diazabicyclo[4.3.1]dec-9-yl]ethyl}cyclopentyl]-β-(6-methoxypyridin-3-yl)-L-phenylalaninamide] | 71 |
| N[C@H](C(=O)N[C@H]1CCC[C@@H]1CC[C@H]1CN[C@@H]2CCCS(=O)(=O)N1C2)[C@H](c1cncc(F)c1)c1ccc(Cl)c(F)c1 [Example 81, (βS)-4-chloro-N-[(1S,2R)-2-{2-[(6R,9S)-2,2-dioxido-2-thia-1,7-diazabicyclo[4.3.1]dec-9-yl]ethyl}cyclopentyl]-3-fluoro-β-(5-fluoropyridin-3-yl)-L-phenylalaninamide] | 68 |
| COC(=O)N[C@H](C(=O)N[C@H]1CCC[C@@H]1CC[C@H]1CN[C@@H]2CCCS(=O)(=O)N1C2)[C@@H](c1ccccc1)c1ccc(OC)nc1 [Example 82, methyl {(1S)-2-{[(1S,2R)-2-{2-[(6R,9S)-2,2-dioxido-2-thia-1,7-diazabicyclo[4.3.1]dec-9-yl]ethyl}cyclopentyl]amino}-1-[(S)-(6-methoxypyridin-3-yl)(phenyl)methyl]-2-oxoethyl}carbamate] | 160 |
| COC(=O)N[C@H](C(=O)Nc1cccc(F)c1CC[C@H]1CN[C@@H]2CCCS(=O)(=O)N1C2)C(c1ccc(F)cc1)[C@H]1C[C@@H](C)O[C@@H](C)C1 (stereo partly drawn) [Example 83, methyl [(1S)-2-[(2R,4r,6S)-2,6-dimethyltetrahydro-2H-pyran-4-yl]-1-[(2-{2-[(6R,9S)-2,2-dioxido-2-thia-1,7-diazabicyclo[4.3.1]dec-9-yl]ethyl}-3-fluorophenyl)carbamoyl]-2-(4-fluorophenyl)ethyl]carbamate] | 8.2 |
| N[C@H](C(=O)Nc1cccc(F)c1OCC1CNC2CCCS(=O)(=O)N1C2)[C@@H](c1ccc(F)cc1)c1cc(F)cc(F)c1 (stereo partly drawn) [Example 84, (βS)-β-(3,5-difluorophenyl)-N-{2-[(2,2-dioxido-2-thia-1,7-diazabicyclo[4.3.1]dec-9-yl)methoxy]-3-fluorophenyl}-4-fluoro-L-phenylalaninamide] | 210 |
| COC(=O)N[C@H](C(=O)Nc1cccc(F)c1OCC1CNC2CCCS(=O)(=O)N1C2)[C@@H](c1ccc(F)cc1)c1cc(F)cc(F)c1 (stereo partly drawn) [Example 85, methyl [(1S,2S)-2-(3,5-difluorophenyl)-1-({2-[(2,2-dioxido-2-thia-1,7-diazabicyclo[4.3.1]dec-9-yl)methoxy]-3-fluorophenyl}carbamoyl)-2-(4-fluorophenyl)ethyl]carbamate] | 150 |
| N[C@H](C(=O)Nc1cccc(F)c1CCC1CNC2CCCS(=O)(=O)N1C2)[C@@H](c1ccc(F)cc1)C12CC(C1)C2 (stereo partly drawn) [Example 86, (βR)-β-bicyclo[1.1.1]pent-1-yl-N-{2-[2-(2,2-dioxido-2-thia-1,7-diazabicyclo[4.3.1]dec-9-yl)ethyl]-3-fluorophenyl}-4-fluoro-L-phenylalaninamide] | 340 |
| COC(=O)N[C@H](C(=O)Nc1cccc(F)c1CCC1CNC2CCCS(=O)(=O)N1C2)[C@@H](c1ccc(F)cc1)C12CC(C1)C2 (stereo partly drawn) [Example 87, methyl [(1S,2R)-2-bicyclo[1.1.1]pent-1-yl-1-({2-[2-(2,2-dioxido-2-thia-1,7-diazabicyclo[4.3.1]dec-9-yl)ethyl]-3-fluorophenyl}carbamoyl)-2-(4-fluorophenyl)ethyl]carbamate] | 130 |
| CO[C@H](C(C)C)[C@H](c1ccc(F)cc1)[C@H](N)C(=O)Nc1cccc(F)c1CCC1CN[C@@H]2CCCS(=O)(=O)N1C2 (stereo partly drawn) [Example 88, (βR)-N-(2-{2-[(6R)-2,2-dioxido-2-thia-1,7-diazabicyclo[4.3.1]dec-9-yl]ethyl)-3-fluorophenyl)-4-fluoro-β-[(1R)-1-methoxy-2-methylpropyl]-L-phenylalaninamide] | 91 |
| N[C@H](C(=O)Nc1cccc(F)c1CCC1CNC2CCCS(=O)(=O)N1C2)[C@@H](c1ccc(Cl)cc1)c1ccc(C(F)(F)F)nc1 (stereo partly drawn) [Example 89, (βS)-4-chloro-N-{2-[2-(2,2-dioxido-2-thia-1,7-diazabicyclo[4.3.1]dec-9-yl)ethyl]-3-fluorophenyl}-β-[6-(trifluoromethyl)pyridin-3-yl]-L-phenylalaninamide] | 5.1 |
| COC(=O)N[C@H](C(=O)Nc1cccc(F)c1CCC1CN[C@@H]2CCCS(=O)(=O)N1C2)[C@H](CC(C)C)c1ccc(F)cc1 (stereo partly drawn) [Example 90, methyl [(1S,2R)-1-[(2-{2-[(6R)-2,2-dioxido-2-thia-1,7-diazabicyclo[4.3.1]dec-9-yl]ethyl}-3-fluorophenyl)carbamoyl]-2-(4-fluorophenyl)-4-methylpcnlyl]carbamate] | 23 |
| N[C@H](C(=O)Nc1c(F)ccc(F)c1CC[C@H]1CN[C@@H]2CCCS(=O)(=O)N1C2)[C@@H](c1ccc(Cl)cc1)C1CCOCC1 [Example 91, (βR)-4-chloro-N-(2-{2-[(6R,9S)-2,2-dioxido-2-thia-1,7-diazabicyclo[4.3.1]dec-9-yl]ethyl}-3,6-difluorophenyl)-β-(tetrahydro-2H-pyran-4-yl)-L-phenylalaninamide] | 22 |
| COC(=O)N[C@H](C(=O)N[C@H]1CCCC[C@@H]1CC[C@H]1CN[C@@H]2CCCS(=O)(=O)N1C2)C(c1ccc(F)cc1)c1ccc(F)cc1 [Example 92, methyl [(1S)-1-[bis(4-fluorophenyl)methyl]-2-{[(1S,2R)-2-{2-[(6R,9S)-2,2-dioxido-2-thia-1,7-diazabicyclo[4.3.1]dec-9-yl]ethyl}cyclohexyl]amino}-2-oxoethyl]carbamate] | 56 |
| N[C@H](C(=O)N[C@H]1CCCC[C@@H]1CC[C@H]1CN[C@@H]2CCCS(=O)(=O)N1C2)C(c1ccc(F)cc1)c1ccc(F)cc1 [Example 93, N-[(1S,2R)-2-{2-[(6R,9S)-2,2-dioxido-2-thia-1,7-diazabicyclo[4.3.1]dec-9-yl]ethyl)cyclohexyl]-4-fluoro-β-(4-fluorophenyl)-L-phenylalaninamide] | 56 |
| CC(C)n1cc([C@H](c2ccc(Cl)cc2)[C@H](N)C(=O)Nc2cccc(F)c2CCC2CNC3CCCS(=O)(=O)N2C3)ccc1=O (stereo partly drawn) [Example 95, (βS)-4-chloro-N-{2-[2-(2,2-dioxido-2-thia-1,7-diazabicyclo[4.3.1]dec-9-yl)ethyl]-3-fluorophenyl}-β-[1-(1-methylethyl)-6-oxo-1,6-dihydropyridin-3-yl]-L-phenylalaninamide] | 63 |
| COC(=O)N[C@H](C(=O)N[C@H]1CCCC[C@@H]1CC[C@H]1CN[C@@H]2CCCS(=O)(=O)N1C2)[C@@H](c1ccc(Cl)cc1)C(C)C [Example 96, methyl [(1S,2S)-2-(4-chlorophenyl)-1-{[(1S,2R)-2-{2-[(6R,9S)-2,2-dioxido-2-thia-1,7-diazabicycIo[4.3.1]dec-9-yl]ethyl}cyclohexyl]carbamoyl}-3-methylbutyl]carbamate] | 180 |
| COC(=O)N[C@H](C(=O)N[C@H]1CCCC[C@@H]1CC[C@H]1CN[C@@H]2CCCS(=O)(=O)N1C2)[C@H](c1cncc(C(F)(F)F)c1)c1ccc(Cl)c(F)c1 [Example 97, methyl {(1S,2S)-2-(4-chloro-3-fluorophenyl)-1-{[(1S,2R)-2-{2-[(6R,9S)-2,2-dioxido-2-thia-1,7-diazabicyclo[4.3.1]dec-9-yl]ethyl}cyclohexyl]carbamoyl}-2-[5-(trifluoromethyl)pyridin-3-yl]ethyl}carbamate] | 19 |
| COC(=O)N[C@H](C(=O)N[C@H]1CCCC[C@@H]1CC[C@H]1CN[C@@H]2CCCS(=O)(=O)N1C2)[C@@H](c1ccc(Cl)cc1)c1ccc(OC)nc1 [Example 98, methyl [(1S,2S)-2-(4-chlorophenyl)-1-{[(1S,2R)-2-{2-[(6R,9S)-2,2-dioxido-2-thia-1,7-diazabicyclo[4.3.1]dec-9-yl]ethyl}cyclohexyl]carbamoyl}-2-(6-methoxypyridin-3-yl)ethyl]carbamate] | 47 |
| COC(=O)N[C@H](C(=O)N[C@H]1CCCC[C@@H]1CC[C@H]1CN[C@@H]2CCCS(=O)(=O)N1C2)[C@H](c1cncc(F)c1)c1ccc(Cl)c(F)c1 [Example 99, methyl [(1S,2S)-2-(4-chloro-3-fluorophenyl)-1-{[(1S,2R)-2-{2-[(6R,9S)-2,2-dioxido-2-thia-1,7-diazabicyclo[4.3.1]dec-9-yl]ethyl}cyclohexyl]carbamoyl}-2-(5-fluoropyridin-3-yl)ethyl]carbamate] | 55 |
| COC(=O)N[C@H](C(=O)N[C@H]1CCCC[C@@H]1CC[C@H]1CN[C@@H]2CCCS(=O)(=O)N1C2)[C@@H](c1ccc(Cl)cc1)c1cc(F)cc(F)c1 [Example 100, methyl [(1S,2S)-2-(4-chlorophenyl)-2-(3,5-difluorophenyl)-1-{[(1S,2R)-2-{2-[(6R,9S)-2,2-dioxido-2-thia-1,7-diazabicyclo[4.3.1]dec-9-yl]ethyl}cyclohexyl]carbamoyl}ethyl]carbamate] | 24 |
| COC(=O)N[C@H](C(=O)Nc1cccc(F)c1CCC1CNC2CCCS(=O)(=O)N1C2)[C@@H](c1ccc(Cl)cc1)c1ccc(=O)n(C(C)C)c1 (stereo partly drawn) [Example 101, methyl {(1S,2S)-2-(4-chlorophenyl)-1-({2-[2-(2,2-dioxido-2-thia-1,7-diazabicyclo[4.3.1]dec-9-yl)ethyl]-3-fluorophenyl}carbamoyl)-2-[1-(1-methylethyl)-6-oxo-1,6-dihydropyridin-3-yl]ethyl}carbamate] | 59 |
